Laboratory results published in US10695302B2, “Treatments for attention and cognitive disorders, and for dementia associated with a neurodegenerative disorder” (priority 2013, dated 2020).

Key:
male Sprague-Dawley rats [1] = experiment: cross maze task; type: in vivo, rat
From the text: The experimental design for cross maze task was adapted from Stefani et al, 2003, Behav. Neurosci. 117(4):728-37 (FIG. 7). Ten food-restricted male Sprague-Dawley rats were acclimated to a cross maze whose arms differed by color (red vs blue) or texture (smooth vs rough). A food reward was placed in a food well located at the end of the arm.
Rats were trained to form a mental set by associating a food reward with one feature of one dimension. Rats were subsequently tested on their ability to predict the food reward based on one feature of the alternative dimension.
0.9% saline (1 mg/kg), raclopride (0.05 mg/kg) or SK609 (4 mg/kg) were administered (IP) 30 prior to the experiment, followed by 0.9% saline (1 mg/kg) 15 min prior to beginning the task. Animals were tested to criterion performance of 8 consecutive correct trials.

male Sprague-Dawley rats [2] = experiment: set-shifting task; type: in vivo, rat; settings: IP, SK609 4.0 mg/kg or raclopride 0.05 mg/kg, versus saline
From the text: Sixteen food-restricted male Sprague-Dawley rats were trained to discriminate between a pair of small ceramic pots in order to retrieve a food reward buried within one of the pots. A pair of pots differed from each other along three possible dimensions: scent, digging medium, or material covering the outer surface of the pot.
Simple discriminations (SD) were made between pots differing from each other along one dimension. Compound Discriminations (CD) were made between pots differing along two dimensions. Intra-dimensional Shifts (IDS) were changes made within a previously tested dimension. Extra-Dimensional Shifts (EDS) were changes made to a previously untested dimension.
Animals were tested on their ability to form an attentional set by attending to the dimension that predicts the food reward. Animals were then tested on their ability to make an IDS, EDS, or reversal by responding only to the new salient dimension while suppressing the urge to respond to the previously salient stimulus.
0.9% saline (1 mg/kg), raclopride (0.05 mg/kg) or SK609 (4 mg/kg) were administered (IP) 30 prior to the experiment followed by 0.9% saline (1 mg/kg) 15 min prior to beginning the task. Animals were tested to criterion performance of 5 consecutive correct trials.

hDAT = hDAT (Homo sapiens, UniProt Q01959); experiment: effect on efflux of monoamine neurotransmitters, hDAT; type: cell-based
hDAT, sequence (Q01959 whole entry): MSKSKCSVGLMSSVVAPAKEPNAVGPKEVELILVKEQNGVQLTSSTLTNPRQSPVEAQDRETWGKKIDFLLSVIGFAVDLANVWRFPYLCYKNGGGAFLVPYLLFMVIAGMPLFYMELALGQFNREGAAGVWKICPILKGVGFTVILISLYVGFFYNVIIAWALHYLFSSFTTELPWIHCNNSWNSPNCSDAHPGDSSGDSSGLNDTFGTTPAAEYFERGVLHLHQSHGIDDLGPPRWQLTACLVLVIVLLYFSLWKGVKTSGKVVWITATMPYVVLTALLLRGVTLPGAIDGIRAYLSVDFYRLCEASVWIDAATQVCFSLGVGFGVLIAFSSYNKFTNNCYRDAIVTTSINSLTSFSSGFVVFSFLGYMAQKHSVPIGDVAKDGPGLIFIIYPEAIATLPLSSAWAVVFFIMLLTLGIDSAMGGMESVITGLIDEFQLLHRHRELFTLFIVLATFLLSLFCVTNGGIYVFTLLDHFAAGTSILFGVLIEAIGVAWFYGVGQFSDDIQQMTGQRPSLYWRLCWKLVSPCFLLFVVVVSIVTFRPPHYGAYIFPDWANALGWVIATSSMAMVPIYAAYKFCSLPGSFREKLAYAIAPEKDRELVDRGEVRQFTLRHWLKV

hSERT = hSERT (Homo sapiens, UniProt P31645); experiment: effect on efflux of monoamine neurotransmitters, hSERT; type: cell-based
hSERT, sequence (P31645 whole entry): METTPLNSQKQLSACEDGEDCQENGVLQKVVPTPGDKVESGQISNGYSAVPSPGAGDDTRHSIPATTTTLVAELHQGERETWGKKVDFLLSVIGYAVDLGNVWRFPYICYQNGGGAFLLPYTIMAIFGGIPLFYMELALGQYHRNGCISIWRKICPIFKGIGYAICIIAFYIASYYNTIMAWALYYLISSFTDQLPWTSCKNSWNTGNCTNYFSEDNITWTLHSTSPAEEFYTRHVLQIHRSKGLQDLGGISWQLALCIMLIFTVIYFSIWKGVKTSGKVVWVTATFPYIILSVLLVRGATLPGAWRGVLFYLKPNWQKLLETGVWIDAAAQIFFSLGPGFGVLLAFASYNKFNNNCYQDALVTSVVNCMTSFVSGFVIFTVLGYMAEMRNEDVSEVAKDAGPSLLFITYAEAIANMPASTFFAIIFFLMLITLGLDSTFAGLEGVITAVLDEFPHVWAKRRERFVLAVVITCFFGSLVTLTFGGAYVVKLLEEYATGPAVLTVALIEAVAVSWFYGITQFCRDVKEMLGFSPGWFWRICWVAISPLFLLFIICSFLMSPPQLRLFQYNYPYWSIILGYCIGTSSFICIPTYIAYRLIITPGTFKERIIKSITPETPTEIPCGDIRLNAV

hNET = hNET (Homo sapiens, UniProt P23975); experiment: effect on efflux of monoamine neurotransmitters, hNET; type: cell-based
hNET, sequence (P23975 whole entry): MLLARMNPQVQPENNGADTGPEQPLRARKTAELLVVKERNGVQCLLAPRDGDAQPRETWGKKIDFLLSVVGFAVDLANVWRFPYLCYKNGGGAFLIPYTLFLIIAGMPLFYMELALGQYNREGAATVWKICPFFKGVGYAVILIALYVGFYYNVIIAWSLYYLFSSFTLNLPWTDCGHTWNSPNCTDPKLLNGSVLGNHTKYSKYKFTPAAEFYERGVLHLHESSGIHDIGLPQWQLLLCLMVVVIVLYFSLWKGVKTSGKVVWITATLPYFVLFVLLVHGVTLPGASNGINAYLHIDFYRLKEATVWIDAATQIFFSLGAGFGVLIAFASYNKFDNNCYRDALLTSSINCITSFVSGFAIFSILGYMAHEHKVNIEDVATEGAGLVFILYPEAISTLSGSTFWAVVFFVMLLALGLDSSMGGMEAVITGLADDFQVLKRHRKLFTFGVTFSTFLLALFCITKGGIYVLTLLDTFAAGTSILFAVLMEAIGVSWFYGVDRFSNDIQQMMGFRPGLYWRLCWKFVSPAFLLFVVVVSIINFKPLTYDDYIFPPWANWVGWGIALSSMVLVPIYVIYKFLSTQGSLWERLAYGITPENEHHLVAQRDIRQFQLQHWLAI

male Sprague-Dawley rats [3] = experiment: sustained attention task (vigilance index); type: in vivo, rat
Procedure: The vigilance index (VI) of rats treated with SK609 was evaluated using the following protocol. Substantively, eight water restricted male Sprague-Dawley rats were trained in an operant task of sustained attention (McGaughy & Sarter, 1995, Psychopharm. 117:340-357). In response to both signal and non-signal conditions, a water reward was given for correct responses as a positive reinforcer. Rats were first trained by successive approximation to establish lever pressing behavior. Subjects were then trained to criterion performance on the sustained attention task with a 1,000 msec light stimulus duration and then transferred to 15 msec stimulus duration.
Performance was determined based on a rat's calculated VI: VI=(h−f)/[2*(h+f)−(h+f)^2], wherein h (relative hits)=# Hits/(# Hits+# Misses), and f ([…])=# False Alarms/(# False Alarms+# Correct Rejections).
VI of 1 indicates complete vigilance; VI of 0.35 indicates above chance vigilance; and VI of −1 indicates no vigilance.
Testing occurred over a 45 min session of randomly presented signal and non-signal trials. Criterion performance required a rat to achieve greater than 59% signal and non-signal trials, a VI greater than 0.35 and less than 25% omissions per day for three consecutive days. Once subjects stabilized at a baseline, their responses are no longer considered random.
SK609 was administered intraperitoneally (IP) at various doses 15 min prior to beginning the task. Prazosin was administered IP 30 min prior, and SK609 15 min prior to beginning the task. Data are presented as difference scores for VI from an average baseline (FIGS. 4-6).
The operant conditioning chambers contained a house light (2.8 W), a stimulus light (2.8 W), a pair of retractable levers and water reward apparatus. Eight water-restricted male Sprague-Dawley rats were trained in an operant task of sustained attention. In response to both signal and non-signal conditions, a water reward was given for correct responses as a positive reinforcer.
Rats were first trained by successive approximation to establish lever pressing behavior. Subsequently, the rats were trained to criterion performance. Criterion performance required a rat to achieve greater than 59% signal and non-signal trials, a VI greater than 0.35 and less than 25% omissions per day for three consecutive days.
Prazosin (0.25 mg/kg) and raclopride (0.05 mg/kg) were administered (IP) 30 min prior to the experiment followed by either SK609 (4.0 mg/kg) or MPH (2.0 mg/kg) 15 min prior to beginning the task. Performance was determined based on a rat's calculated Vigilance Index (VI). Data are presented as difference scores for VI from an average baseline.

[4] = efflux measured as percentage of vehicle, FIG. 1
[5] = panel of monoamine neurotransmitter transporters
[6] = SK609 IP 4.0 mg/kg, prazosin IP 0.25 mg/kg or raclopride IP 0.05 mg/kg 30 min prior
[7] = SK609 peak dose 8 mg/kg, FIG. 4

CC(N)CCc1ccccc1Cl (stereo not shown) [SK609, 4-(2-chlorophenyl)-butan-2-amine]
cross maze overall performance in 8 trial increments over 80 trials (male Sprague-Dawley rats [1]; SK609 IP 4.0 mg/kg vs saline, p=0.008, FIG. 10B): improved performance faster and maintained improvements better than saline | cross maze performance (number of trials to reach criterion) (male Sprague-Dawley rats [1]; SK609 IP 4.0 mg/kg, n=5 vs saline n=2, p=0.027, FIG. 10A): improved performance relative to saline | performance in EDS, IDS, CD of set-shifting task (male Sprague-Dawley rats [2]): did not differ significantly from saline | IC50 (hDAT; [4]): 8.5 µM | effect on dopamine transporters (DAT) (hDAT; [5]): no effect | IC50 (hSERT; [4]): 35.9 µM | effect on serotonin transporters (SERT) (hSERT; [5]): no effect | IC50 (hNET; [4]): 0.29 µM | effect on NET (hNET; [5]): selective NET antagonism | peak dose for vigilance index (VI) performance (male Sprague-Dawley rats [3]; IP, doses 2, 4, 8, 10 and 20 mg/kg, inverted-U dose response): 8 mg/kg | % omissions (male Sprague-Dawley rats [3]; SK609 8 mg/kg IP): without increasing omissions | sustained attention (VI difference from baseline) (male Sprague-Dawley rats [3]; SK609 8 mg/kg IP, 15 min prior to task): enhanced sustained attention | % omissions (male Sprague-Dawley rats [3]; SK609 high doses IP): increased the % of omissions

COc1cc2nc(N3CCN(C(=O)c4ccco4)CC3)nc(N)c2cc1OC [prazosin, 2-[4-(2-furoyl)piperazin-1-yl]-6,7-dimethoxyquinazolin-4-amine, reference compound]
effect of antagonist pre-treatment on MPH VI performance (male Sprague-Dawley rats [3]; MPH IP 2.0 mg/kg, prazosin IP 0.25 mg/kg, n=8): blocked the effects | effect of antagonist pre-treatment on SK609 VI performance (male Sprague-Dawley rats [3]; [6]): blocked the effects | effect of antagonist pre-treatment on SK609 VI performance (male Sprague-Dawley rats [3]; [7]): completely abrogated

CCN1CCC[C@H]1CNC(=O)c1c(O)c(Cl)cc(Cl)c1OC [raclopride, 3,5-dichloro-N-{[(2S)-1-ethylpyrrolidin-2-yl]methyl}-2-hydroxy-6-methoxybenzamide, reference compound]
performance in EDS, IDS, CD of set-shifting task (male Sprague-Dawley rats [2]): impairments in performance relative to controls | effect of antagonist pre-treatment on SK609 VI performance (male Sprague-Dawley rats [3]; [6]): blocked the effects | effect of antagonist pre-treatment on SK609 VI performance (male Sprague-Dawley rats [3]; [7]): moderately
